Columns and labels:
[1] = test system: H9c2 cardiomyoblasts; assay: H9c2 viability under hypoxia/serum starvation (LIVE/DEAD); format: cell-based, rat; details: 1 uM
Procedure: For survival to hypoxic challenge and oxidative challenge, H9c2 cardiomyoblasts are submitted to the hypoxia/serum starvation (<1% O2 in hypoxia chamber in low serum media for 48 hours) or oxidative stress (incubation in media for 1 hour spiked with 0-1 mM H2O2). Viability status of H9c2 cells was evaluated using the LIVE/DEAD assay.

[2] = test system: antioxidant responsive elements (ARE); assay: Antioxidant response luciferase reporter assay in H9c2; format: cell-based, rat; details: H9c2, 10E-5 to 10E-10M, 4 hours, 3 hours washout
Procedure: (§1) H9c2 rat cardiomyoblasts were seeded at a density of 5,000 cells per well in 96 well plates in DMEM 10% FBS complete medium and transfected using lipofectamine with the Cignal Reporter Assay Heat shock response and Antioxidant response kits (SABiosciences, Qiagen) according to the manufacturers' protocol.

[3] = test system: human mesenchymal stem cells (hMSC); assay: mRNA expression in hMSC by real-time PCR; format: cell-based
Source text: FIG. 25A is a table representing mRNA expression of selected genes measured by real-time PCR in human mesenchymal stem cells (hMSC) conditioned with Celastrol alone or in combination with selected adjunct agents. Results are expressed as fold change versus Vehicle-treated cells.
FIG. 25B is a table representing mRNA expression of selected genes measured by real-time PCR in human mesenchymal stem cells (hMSC) conditioned with selected Celastrol analogs alone or in combination with selected adjunct agents. Results are expressed as fold change versus Vehicle-treated cells.
Results are expressed as fold change versus Vehicle-treated cells. (Arbitrary angiogenic index: (VEGFa+FGF2+SDF1)*2) (A=Additive effect; S=Synergistic effect).
(§2) To test the second main condition, MSCs were treated with the candidate pharmaco-optimizers for 1 hour, followed by 3 hours washout period. Cell mRNA was extracted and expression of genes of interest was quantified by real time PCR. In additional MSC cultures, cells were treated for one hour, washed and cultured in low serum media for 24 hours. The media containing paracrine factors secreted by MSCs was then placed in contact with H9c2 cardiomyoblast cell line. H9c2 cells were then submitted to the hypoxia/serum starvation (<1% O2 in hypoxia chamber in low serum media for 48 hours) or oxidative stress (incubation in media for 1 hour spiked with 0-1 mM H2O2). Viability status of H9c2 cells was evaluated using the LIVE/DEAD assay as detailed above.

[4] = test system: H9c2 cardiomyoblasts; assay: H9c2 viability under hypoxia/reoxygenation stress; format: cell-based, rat; details: 1 uM
Procedure: Next, the hypoxia/reoxygenation challenge is performed. Briefly, viability analysis was performed in rat H9c2 cardiomyoblasts as previously reported. For hypoxia/reoxygenation stress, cells were cultured in DMEM no glucose (Life Technologies), serum starved and placed in hypoxic conditions (<1% O2) for 18 h. At reoxygenation (normoxic conditions), cells were treated with Celastrol (10^−10 to 10^−6 mol/L, Cayman Chemical, Ann Arbor, Mich.), Celastrol analogs or vehicle (Dimethyl sulfoxide (DMSO), Sigma-Aldrich Canada, Oakville, ON; final concentration<1% v/v) in DMEM high glucose 1% FBS for 1 h, then reoxygenation was continued in DMEM high glucose for an additional 5 h.

[5] = Rat myocardial ischemia/reperfusion in vivo, echocardiography at 24 h; details: 1 mg/Kg intraventricular, vs Vehicle
Procedure: Rats were randomly assigned to the following groups: Sham (n=6), Vehicle (n=8), Celastrol 1 mg/Kg (n=6) or Celastrol analogs. Under 2% isoflurane anesthesia, baseline echocardiography using a Sonos 5500 Imaging System (Philips, Philips Healthcare, Andover, Mass., USA) with a 12 MHz transducer was performed as described^12. All measures were acquired by the same experienced observer, blinded to the treatment. For each measurement, three to five cardiac cycles were analysed and averaged.
After echocardiography, the animal was intubated and mechanically ventilated, then bupivacaine 2 mg/kg was injected, and a left thoracotomy was performed, exposing the heart. Using a 5-0 silk slipknot, an occlusion of the left anterior descending coronary artery was performed. Visual blanching and electrocardiographic changes confirmed myocardial ischemia. In Sham animals, suture was not ligated. After 30 minutes, the suture occlusion was released. Celastrol, Celastrol analogs or vehicle was injected intraventricularly for acute systemic delivery, then the chest was closed. Buprenorfine (0.05 mg/Kg sc) and carprofen (5 mg/Kg sc) were injected at the end of surgery. Animals were left to recuperate for 24 h, then a second echocardiography was performed. Animals were sacrificed, cardiac tissue was snap frozen, and blood was collected in heparinized tubes, then centrifuged at 4° C. Plasma was collected, snap frozen and kept at −80° C. until analysis.

[6] = test system: heat shock response (HSR); assay: Heat shock response luciferase reporter assay in H9c2; format: cell-based, rat; details: H9c2, 10E-5 to 10E-10M, 4 hours, 3 hours washout
Procedure: as §1

[7] = test system: isolated perfused heart; set-up: species or system rat
[8] = test system: H9c2 cells; assay: H9c2 viability in oxidative stress after pre-conditioning with media from treated rMSC (paracrine); format: cell-based, rat; details: 24-hour preconditioning with media from treated rMSC
Procedure: as §2

[9] = test system: rat mesenchymal stem cells (rMSC); assay: rMSC viability after hypoxia/serum starvation (LIVE/DEAD); format: cell-based; details: 1-hour treatment; for protection of rMSCs from 48-hour hypoxia induced cell death: compound alone
Procedure: (§3) To test the first main condition, MSCs (either sourced from rat or humans) were treated with the candidate pharmaco-optimizers, washed and submitted to hypoxia/serum starvation (<1% O2 in hypoxia chamber in low serum media for 48-72 hours) or oxidative stress (incubation in media for 1 hour spiked with 0-2 mM H2O2), which mimic the major lethal stressors present in the ischemic transplant microenvironment. Viability status of cells are assessed using the LIVE/DEAD viability/cytotoxicity kit (Life Technologies™) and results are quantified by Operetta high content screening (HCS) apparatus equipped with Harmony automated analysis software (Perkin Elmer™).

[10] = test system: rat mesenchymal stem cells (rMSC); assay: mRNA expression in rMSC by real time PCR; format: cell-based
Procedure: as §2
Combination Treatments Tested—First Experiment: Celastrol (1 μM) or Gedunin (1 μM)+EGCG (1 μM, 10 μM) or TBHQ (1 μM, 5 μM)

[11] = test system: human mesenchymal stem cells (hMSCs); assay: VEGFa protein secreted by hMSC into culture medium; format: cell-based; details: 1-hour treatment combined with Celastrol
[12] = test system: H9c2 cardiomyoblasts; assay: HO-1 and VEGFa mRNA in H9c2 cardiomyoblasts by real-time PCR; format: cell-based, rat; details: H9c2, 1-hour with Celastrol plus adjunct, 3 hour washout in normoxic or hypoxic condition
Source text: Results are expressed as fold change versus Vehicle-treated h9c2.

[13] = test system: rat mesenchymal stem cells (rMSC); assay: rMSC viability after oxidative stress (H2O2, LIVE/DEAD); format: cell-based; details: 1-hour treatment; for protection of rMSCs from oxidative stress induced death: compound alone
Procedure: as §3

[14] = test system: H9c2 cardiomyoblasts; assay: H9c2 viability after oxidative challenge, direct treatment with Celastrol combinations; format: cell-based, rat; details: 1-hour treatment combined with Celastrol; 1 mM H2O2 for 1 hour
[15] = test system: H9c2 cardiomyoblast cell line; assay: H9c2 viability in hypoxia after pre-conditioning with media from treated rMSC (paracrine); format: cell-based, rat; details: 48-hour pre-conditioning with media from treated rMSC; Gedunin high dose
Procedure: as §2

[16] = test system: human MSCs; assay: Screen of compounds for viability of human MSCs under hypoxic stress; format: cell-based; details: FIG. 1
Procedure: In an attempt to identify conditioning compounds that are able to ensure in vivo cellular viability, based on preliminary evidence using Celastrol, over a dozen compounds with structural similarities identified through literature and the Sigma-Aldrich® Structure Search online tool, were screened. The compounds' capacity to improve viability of human MSCs challenged to hypoxic stress was measured. The molecules that were screened, most of which are natural compounds, can be classified as triterpenoids, limonoids, withanolides, sterols, isoprenoides/ diterpenes and flavonoids. Classical HSP90 inhibitors were also added to the screen, such as Radicicol that directly target the ATP binding pocket at the NT region of HSP90^9 (NT inhibitor). […] 28; 42(2):260-6.^10Patwardhan C. A. et al., J Biol Chem. 2013 Mar. 8; 288(10):7313-25.^11Sreeramulu S. et al., Angew Chem Int Ed Engl. 2009; 48(32):5853-5.^12Gu M., et al. Invest New Drugs. 2014 Feb.;32(1):68-74.

[17] = 10^−8 mol/L dose, vs Vehicle (DMSO)
[18] = 1-hour treatment and 3-hour washout, combined with Celastrol
[19] = rMSC, 1-hour treatment and 3-hour washout, combined with Celastrol

## CC1=C(O)C(=O)C=C2C1=CC=C1[C@@]2(C)CC[C@@]2(C)[C@@H]3C[C@](C)(C(N)=O)CC[C@]3(C)CC[C@]12C [Analog 1]
[1]
  protection of H9c2 cardiomyoblasts from hypoxia: effective
[2]
  stimulation of reporter gene controlled by antioxidant responsive elements (ARE): among the most potent and efficient compounds tested
[3]; FIGS. 25A, 25B, 26A to 26D
  ranking as HSP90 inhibitor from expression of HSPs, growth factors, antioxidant proteins/enzymes, cytokines, matrix remodeling proteins: best HSP90 inhibitors
[4]
  protection of H9c2 cardiomyoblasts from hypoxia/reoxygenation stress: effective
[5]
  cardiac output (CO) following I/R injury: preserving
  ejection fraction (EF) following I/R injury: preserving
  fractional shortening (FS) following I/R injury: preserving
  stroke volume (SV) following I/R injury: preserving
[6]
  stimulation of reporter gene controlled by heat shock responsive elements (HSR): among the most potent and efficient compounds tested
[7]
  infarct area measured by TTC stain: significantly reduced
[7]; [17]
  Coronary reserve flow (CRF): preserved
  I/R-induced systolic dysfunction (+/−dP/dt, generated pressure, EDP, contractility index): protected the heart from I/R-induced systolic dysfunction
  high sensitivity troponin T (TNT-hs) release: significantly reduced

## CC1=C(O)C(=O)C=C2C1=CC=C1[C@@]2(C)CC[C@@]2(C)[C@@H]3C[C@](C)(C(=O)NCCO)CC[C@]3(C)CC[C@]12C [Analog 3]
[1]
  protection of H9c2 cardiomyoblasts from hypoxia: effective
[2]
  stimulation of reporter gene controlled by antioxidant responsive elements (ARE): among the most potent and efficient compounds tested
[3]; FIGS. 25A, 25B, 26A to 26D
  ranking as HSP90 inhibitor from expression of HSPs, growth factors, antioxidant proteins/enzymes, cytokines, matrix remodeling proteins: best HSP90 inhibitors
[4]
  protection of H9c2 cardiomyoblasts from hypoxia/reoxygenation stress: effective
[6]
  stimulation of reporter gene controlled by heat shock responsive elements (HSR): among the most potent and efficient compounds tested

## CC1=C(O)C(=O)C=C2C1=CC=C1[C@@]2(C)CC[C@@]2(C)[C@@H]3C[C@](C)(C(=O)NO)CC[C@]3(C)CC[C@]12C [Analog 4]
[1]
  protection of H9c2 cardiomyoblasts from hypoxia: effective
[2]
  stimulation of reporter gene controlled by antioxidant responsive elements (ARE): among the most potent and efficient compounds tested
[4]
  protection of H9c2 cardiomyoblasts from hypoxia/reoxygenation stress: effective
[6]
  stimulation of reporter gene controlled by heat shock responsive elements (HSR): among the most potent and efficient compounds tested

## O=C(O[C@@H]1Cc2c(O)cc(O)cc2O[C@@H]1c1cc(O)c(O)c(O)c1)c1cc(O)c(O)c(O)c1 [EGCG, epigallocatechin gallate]
[8]
  protection of H9c2 cells from oxidative stress induced death (paracrine): protects
[9]; combined with Celastrol
  effect on Celastrol-mediated protection of rMSCs from hypoxia induced cell death: potentiates Celastrol-mediated protection
[9]
  protection of rMSCs from 48-hour hypoxia induced cell death: not
[3]; [18]
  effect on Celastrol-induced HSP32 (HO-1) mRNA expression in human MSC: synergistic increase
  effect on Celastrol-induced HSP70 mRNA expression in human MSC: synergistic increase
[3]; FIGS. 25A, 25B, 26A to 26D
  ranking as adjunct agent in combination with Celastrol or Celastrol analogs (gene expression): among top adjunct agents
[10]; [19]
  effect on Celastrol-induced Catalase (CAT) mRNA expression: synergistic increase
  effect on Celastrol-induced FGF2 mRNA expression: synergistic increase
  effect on Celastrol-induced Glutathione peroxidase (GPx) mRNA expression: synergistic increase
  effect on Celastrol-induced Glutathione reductase (GR) mRNA expression: synergistic increase
  effect on Celastrol-induced HSP32 (HO-1) mRNA expression: synergistic increase
  effect on Celastrol-induced HSP70 mRNA expression: synergistic increase
  effect on Celastrol-induced Superoxide dismutase 1 (SOD1) mRNA expression: synergistic increase
  effect on Celastrol-induced VEGFα mRNA expression: synergistic increase
  effect on Celastrol-induced downregulation of TNFα mRNA: synergistically accentuate
[10]; rMSC, 1-hour treatment and 3-hour washout, combined with Gedunin
  effect on Gedunin-induced downregulation of TNFα mRNA: synergistically accentuate
[10]; two other rMSC cell lines, combined with Celastrol
  effect on Celastrol-induced HSP70 expression in two other rMSC cell lines: synergistic increase
[11]; hypoxic, compared with normal culture
  VEGF protein after 48 hours in hypoxic condition: even greater expression of VEGF protein
[11]; normoxic
  VEGF protein after 48 hours in normal culture: additive to synergistic increase in VEGF protein
[12]
  mRNA expression of HO-1: increased mRNA expression
  mRNA expression of VEGFa: increased mRNA expression
[13]; combined with Celastrol
  effect on Celastrol-induced protection of rMSCs from oxidative stress induced death: potentiates Celastrol-induced protection
[13]
  protection of rMSCs from oxidative stress induced death: protect
[14]
  viability of H9c2 cells following oxidative challenge: synergistic increase in viability

## CC(=O)O[C@@H]1C[C@H]2C(C)(C)C(=O)C=C[C@]2(C)[C@H]2CC[C@@]3(C)[C@H](c4ccoc4)OC(=O)[C@H]4O[C@]43[C@@]21C [Gedunin]
[8]
  protection of H9c2 cells from oxidative stress induced death (paracrine): protects
[9]
  protection of rMSCs from 48-hour hypoxia induced cell death: protect
[15]
  protection of H9c2 from 48-hour hypoxia-induced cell death (paracrine): protects
[10]; rMSC, 1-hour treatment and 3-hour washout, co-treatment with EGCG or tBHQ
  IL-1β mRNA expression induced by EGCG and tBHQ: downregulate
[16]
  capacity to improve viability of human MSCs challenged to hypoxic stress: top scoring
[13]
  protection of rMSCs from oxidative stress induced death: protect treated cells from oxidative stress-induced death

## C[C@@H]1C[C@H]2O[C@@H]2/C=C\C=C\C(=O)Cc2c(Cl)c(O)cc(O)c2C(=O)O1 [Radicicol]
[8]
  protection of H9c2 cells from oxidative stress induced death (paracrine): no protection
[9]
  protection of rMSCs from 48-hour hypoxia induced cell death: protect
[15]
  protection of H9c2 from 48-hour hypoxia-induced cell death (paracrine): does not produce a mediator for paracrine efficacy
[13]
  protection of rMSCs from oxidative stress induced death: not
